# Where two headings read alike, the source gives them in different places.
# Tests used:
# ECHO 2 = experiment: Inhibition of virion production, ECHO 2 on HEp-2 cells (Table E); type: cell-based; conditions: ECHO 2 10^-6; 10^-7; 10^-8, HEp-2
# Protocol: (§1) The activity of the compound G-413 was assessed by the test of inhibition of virion production.
# (§2) The test was effected with various types of virus, on HEp-2 cells.
# HSV2 [1] = experiment: Inhibition of virion production, HSV2 on HEp-2 cells (Table G); type: cell-based, Herpes simplex virus type 2
# HSV2 [2] = experiment: Activity on kidney primary cells of rabbit with respect to HSV2 (Table I)
# [3] = test system: Herpes simplex virus type 2; experiment: Activity in vitro on HSV2 for different times of administration after infection (Table C); type: cell-based
# Protocol: (§3) The tests were carried out inoculating virus of various kinds on living cells from different sources, forming the respective culture in tissue culture flasks, according to the method well known to those skilled in the art. The virus forms a plurality growing seats on the bottom of the tissue culture flasks, depending on the virus concentration and the test conditions, said seats being easily identifiable with the naked eye. In such a way it is possible to establish the controls. At the same time in the tissue culture flasks wherein the compound of the invention had been introduced, at various concentrations, an inhibition is observed, as shown by a number of growing seats lower than that of the controls. Said inhibition was calculated in percent as referred in the following tables. In order to ascertain the activity of compound G-413 "in vitro" at a dose of 10 μg on Herpes simplex virus type 2 for different times of administration, a test was effected introducing the compound into the cells after the virus infection.
# [4] = test system: virus Coxackie B, type 4 (COXB4); experiment: Antiviral activity in vitro on Coxackie B type 4 at different doses (Table B); type: cell-based
# Protocol: as §3, with “Tests have been effected by using virus” for “In order to ascertain the activity of compound G-413 "in vitro" at a dose of 10 μg on”, “simplex,” for “simplex virus”, “(HSV2), and” for “for different times of administration, a test was effected introducing the compound into the cells after the”, “Coxackie B, type 4 (COXB4).” for “infection.”
# Polio 1 = type: cell-based
# HSV2 [5] = experiment: Activity on kidney secondary cells of rabbit YRK with respect to HSV2 (Table J)
# Adeno 17 = experiment: Inhibition of virion production, Adeno 17 on HEp-2 cells (Table H); type: cell-based
# Protocol: as §1, §2
# Coxsackie B4 = experiment: Inhibition of virion production, Coxsackie B4 on HEp-2 cells (Table F); type: cell-based
# Protocol: as §1, §2
# [6] = test system: Herpes simplex virus type 2; experiment: Antiviral activity in vitro on HSV2 at different doses (Table A); type: cell-based
# Protocol: as §3, with “Tests have been effected by using virus” for “In order to ascertain the activity of compound G-413 "in vitro" at a dose of 10 μg on”, “simplex,” for “simplex virus”, “(HSV2), and” for “for different times of administration, a test was effected introducing the compound into the cells after the”, “Coxackie B, type 4 (COXB4).” for “infection.”
# [7] = Table D, Polio 1 10^-6, HEp-2, 20 μg per "Falcon"
# [8] = Table D, Polio 1 10^-7, HEp-2, 20 μg per "Falcon"
# [9] = Table D, Polio 1 10^-8, HEp-2, 20 μg per "Falcon"
compound,measurement,setting,value
Nc1nnc(-c2ccccc2S(N)(=O)=O)s1 [G-413],inhibition of virion production,ECHO 2,100%
same,inhibition of virion production,"HSV2 [1]; HSV2 10^-1, HEp-2","75,2%"
same,virion production,"HSV2 [1]; HSV2 10^-1, HEp-2",8 PFU
same,inhibition of virion production,"HSV2 [1]; HSV2 10^-2, HEp-2","75,0%"
same,virion production,"HSV2 [1]; HSV2 10^-2, HEp-2",5 PFU
same,inhibition of virion production,"HSV2 [1]; HSV2 10^-3, HEp-2","62,5%"
same,virion production,"HSV2 [1]; HSV2 10^-3, HEp-2",3 PFU
same,inhibition,"HSV2 [2]; HSV2 10^-1, 10 μg","38,1%"
same,virion production,"HSV2 [2]; HSV2 10^-1, 10 μg",13 PFU
same,inhibition,"HSV2 [2]; HSV2 10^-1, 50 μg","71,5%"
same,virion production,"HSV2 [2]; HSV2 10^-1, 50 μg",6 PFU
same,inhibition,"HSV2 [2]; HSV2 10^-2, 10 μg","23,0%"
same,virion production,"HSV2 [2]; HSV2 10^-2, 10 μg",7 PFU
same,inhibition,"HSV2 [2]; HSV2 10^-2, 50 μg","77,0%"
same,virion production,"HSV2 [2]; HSV2 10^-2, 50 μg",3 PFU
same,inhibition,"HSV2 [2]; HSV2 10^-3, 10 μg","50,0%"
same,virion production,"HSV2 [2]; HSV2 10^-3, 10 μg",2 PFU
same,inhibition,"HSV2 [2]; HSV2 10^-3, 50 μg","75,0%"
same,virion production,"HSV2 [2]; HSV2 10^-3, 50 μg",1 PFU
same,inhibition,"[3]; HSV2 10^-2 + 10 μg, no delay","62,5%"
same,virus growth (HSV2 with G-413),"[3]; HSV2 10^-2 + 10 μg, no delay","7,5 PFU/ml"
same,inhibition,"[3]; HSV2 10^-2, 1 h later + 10 μg","45,0%"
same,virus growth (HSV2 with G-413),"[3]; HSV2 10^-2, 1 h later + 10 μg","11,0 PFU/ml"
same,inhibition,"[3]; HSV2 10^-2, 2 h later + 10 μg","60,0%"
same,virus growth (HSV2 with G-413),"[3]; HSV2 10^-2, 2 h later + 10 μg","8,0 PFU/ml"
same,inhibition,"[3]; HSV2 10^-2, 4 h later + 10 μg","77,0%"
same,virus growth (HSV2 with G-413),"[3]; HSV2 10^-2, 4 h later + 10 μg","4,5 PFU/ml"
same,inhibition,"[3]; HSV2 10^-2, 8 h later + 10 μg","85,0%"
same,virus growth (HSV2 with G-413),"[3]; HSV2 10^-2, 8 h later + 10 μg","3,0 PFU/ml"
same,inhibition,"[3]; HSV2 10^-2, 20 h later + 10 μg","42,5%"
same,virus growth (HSV2 with G-413),"[3]; HSV2 10^-2, 20 h later + 10 μg","11,5 PFU/ml"
same,inhibition,"[4]; COXB4 10^-6, 2,5 μg","28,8%"
same,virus growth (COXB4 with G-413),"[4]; COXB4 10^-6, 2,5 μg","23,5 PFU/ml"
same,inhibition,"[4]; COXB4 10^-6, 5,0 μg","89,9%"
same,virus growth (COXB4 with G-413),"[4]; COXB4 10^-6, 5,0 μg","3,0 PFU/ml"
same,inhibition,"[4]; COXB4 10^-6, 10,0 μg","81,9%"
same,virus growth (COXB4 with G-413),"[4]; COXB4 10^-6, 10,0 μg","6,5 PFU/ml"
same,inhibition,"[4]; COXB4 10^-6, 20,0 μg","80,4%"
same,virus growth (COXB4 with G-413),"[4]; COXB4 10^-6, 20,0 μg","6,5 PFU/ml"
same,percent inhibition (in words),"[4]; COXB4, dose of 5 μg",very high percent inhibition
same,inhibition of virion production,Polio 1; [7],"91,9%"
same,virion production,Polio 1; [7],29 PFU
same,inhibition of virion production,Polio 1; [8],"98,2%"
same,virion production,Polio 1; [8],5 PFU
same,inhibition of virion production,Polio 1; [9],"97,7%"
same,virion production,Polio 1; [9],4 PFU
same,inhibition,"HSV2 [5]; HSV2 10^-2, 5 μg",10%
same,virion production,"HSV2 [5]; HSV2 10^-2, 5 μg",9 PFU
same,inhibition,"HSV2 [5]; HSV2 10^-2, 10 μg",30%
same,virion production,"HSV2 [5]; HSV2 10^-2, 10 μg",7 PFU
same,inhibition,"HSV2 [5]; HSV2 10^-2, 25 μg",40%
same,virion production,"HSV2 [5]; HSV2 10^-2, 25 μg",6 PFU
same,inhibition,"HSV2 [5]; HSV2 10^-2, 50 μg",70%
same,virion production,"HSV2 [5]; HSV2 10^-2, 50 μg",3 PFU
same,inhibition,"HSV2 [5]; HSV2 10^-2, 100 μg",70%
same,virion production,"HSV2 [5]; HSV2 10^-2, 100 μg",3 PFU
same,inhibition of virion production,"Adeno 17; Adeno 17 10^-4, HEp-2","65,0%"
same,virion production,"Adeno 17; Adeno 17 10^-4, HEp-2",35 PFU
same,inhibition of virion production,"Adeno 17; Adeno 17 10^-5, HEp-2","67,5%"
same,virion production,"Adeno 17; Adeno 17 10^-5, HEp-2",27 PFU
same,inhibition of virion production,"Adeno 17; Adeno 17 10^-6, HEp-2","63,4%"
same,virion production,"Adeno 17; Adeno 17 10^-6, HEp-2",22 PFU
same,inhibition of virion production,"Coxsackie B4; COX B4 10^-4, HEp-2","72,0%"
same,virion production,"Coxsackie B4; COX B4 10^-4, HEp-2",14 PFU
same,inhibition of virion production,"Coxsackie B4; COX B4 10^-5, HEp-2","83,7%"
same,virion production,"Coxsackie B4; COX B4 10^-5, HEp-2",7 PFU
same,inhibition of virion production,"Coxsackie B4; COX B4 10^-6, HEp-2","85,0%"
same,virion production,"Coxsackie B4; COX B4 10^-6, HEp-2",6 PFU
same,inhibition,"[6]; HSV2 10^-3, 2,5 μg","66,7%"
same,virus growth (HSV2 with G-413),"[6]; HSV2 10^-3, 2,5 μg","3,5 PFU/ml"
same,inhibition,"[6]; HSV2 10^-3, 5,0 μg","66,7%"
same,virus growth (HSV2 with G-413),"[6]; HSV2 10^-3, 5,0 μg","3,5 PFU/ml"
same,inhibition,"[6]; HSV2 10^-3, 10,0 μg","81,0%"
same,virus growth (HSV2 with G-413),"[6]; HSV2 10^-3, 10,0 μg","2,0 PFU/ml"
same,inhibition,"[6]; HSV2 10^-3, 20,0 μg","71,5%"
same,virus growth (HSV2 with G-413),"[6]; HSV2 10^-3, 20,0 μg","3,0 PFU/ml"
same,inhibition,"[6]; HSV2 10^-3, 30,0 μg","52,4%"
same,virus growth (HSV2 with G-413),"[6]; HSV2 10^-3, 30,0 μg","5,0 PFU/ml"
same,inhibition,"[6]; HSV2 10^-3, 40,0 μg","52,4%"
same,virus growth (HSV2 with G-413),"[6]; HSV2 10^-3, 40,0 μg","5,0 PFU/ml"
same,percent inhibition (in words),"[6]; HSV2, dose of 10 μg",very high percent inhibition
CNc1nnc(-c2ccccc2S(N)(=O)=O)s1 [G-444],inhibition of virion production,"Polio 1; Table K, Polio 1 10^-6, HEp-2","64,8%"
same,virion production,"Polio 1; Table K, Polio 1 10^-6, HEp-2",113 PFU
same,inhibition of virion production,"Polio 1; Table K, Polio 1 10^-7, HEp-2","65,7%"
same,virion production,"Polio 1; Table K, Polio 1 10^-7, HEp-2",87 PFU
same,inhibition of virion production,"Polio 1; Table K, Polio 1 10^-8, HEp-2","26,6%"
same,virion production,"Polio 1; Table K, Polio 1 10^-8, HEp-2",83 PFU
C=CCNc1nnc(-c2ccccc2S(N)(=O)=O)s1 [G-445],inhibition of virion production,"Polio 1; Table K, Polio 1 10^-6, HEp-2","73,6%"
same,virion production,"Polio 1; Table K, Polio 1 10^-6, HEp-2",85 PFU
same,inhibition of virion production,"Polio 1; Table K, Polio 1 10^-7, HEp-2","73,2%"
same,virion production,"Polio 1; Table K, Polio 1 10^-7, HEp-2",68 PFU
same,inhibition of virion production,"Polio 1; Table K, Polio 1 10^-8, HEp-2","44,3%"
same,virion production,"Polio 1; Table K, Polio 1 10^-8, HEp-2",63 PFU

# From patent US4423053A, “Derivatives of 2-amino-5-(o-sulphamidophenyl)-1,3,4-thiadiazol as antiviral agents and a process for the preparation thereof” (Societa Italo-Britannica L. Manetti-H. Roberts & Co., priority 1981, dated 1983)
